Experimental data as given in US10821115B2, “Compounds that inhibit Mcl-1 protein” (priority 2017, dated 2020).

System: human multiple myeloma cell line, OPM-2
Test: Cell viability assay (OPM-2 10 FBS), CellTiter-Glo
Type: cell-based
Conditions: Homo sapiens, OPM-2, 16 h, read-out: OPM-2 10% FBS IC50 IP, OPM-2 cells, 10% FBS, 16 h, CellTiter-Glo
Protocol: Cell viability assay (OPM-2 10 FBS)
The human multiple myeloma cell line, OPM-2, was cultured in complete growth medium containing RPMI 1640 and 10% fetal bovine serum (FBS). Cells were seeded into 384-well plates at 3000 cells/well density in complete growth medium containing 10% FBS, and incubated for 16 h with serially diluted test compounds in a 37° C. incubator with 5% CO2. Cell viability was tested using CellTiter-Glo® assay (Promega, Madison, Wis.) according to the manufacturer recommendations. Luminescence was determined using an EnVision® Multilabel plate reader 25 min after the addition of detection reagent. IC50 values were then calculated with Xlfit using a logistical 4-parameter fit model in GraphPad Prism (GraphPad Software, San Diego, Calif.) or in Genedata Screener® (Genedata, Basel, Switzerland).

With CO[C@@]1(CC(=O)N(C)C2CC2)/C=C/C[C@H](C)[C@@H](C)S(=O)(=O)NC(=O)c2ccc3c(c2)N(C[C@@H]2CC[C@H]21)C[C@@]1(CCCc2cc(Cl)ccc21)CO3 [Example 100374, 2-((1S,3′R,6′R,7′S,8′E,11′S,12′R)-6-chloro-7′-methoxy-11′,12′-dimethyl-13′,13′-dioxido-15′-oxo-3,4-dihydro-2H-spiro[naphthalene-1,22′-[20]oxa[13]thia[1,14]diazatetracyclo [14.7.2.0~3,6~.0~19,24~]pentacosa[8,16,18,24]tetraen]-7′-yl)-N-cyclopropyl-N-methylacetamide] as the compound, how does the IC50 read?
Its IC50 is 433 nM.

Which IC50 does the source give for COC(=O)[C@H](NC(=O)C[C@]1(OC)/C=C/C[C@H](C)[C@@H](C)S(=O)(=O)NC(=O)c2ccc3c(c2)N(C[C@@H]2CC[C@H]21)C[C@@]1(CCCc2cc(Cl)ccc21)CO3)[C@@H](C)O [Example 100581, methyl N-(((1S,3′R,6′R,7′S,8′E,11′S,12′R)-6-chloro-7′-methoxy-11′,12′-dimethyl-13′,13′-dioxido-15′-oxo-3,4-dihydro-2H-spiro[naphthalene-1,22′-[20]oxa[13]thia[1,14]diazatetracyclo [14.7.2.0~3,6~.0~19,24~]pentacosa[8,16,18,24]tetraen]-7′-yl)acetyl)-D-allothreoninate] here?
The IC50 was 1540 nM.

For COC[C@@]1(OC)/C=C/C[C@H](C)[C@@H](C)S(=O)(=O)NC(=O)c2ccc3c(c2)N(C[C@@H]2CC[C@H]21)C[C@@]1(CCCc2cc(Cl)ccc21)CO3 [Example 100464, (1S,3′R,6′R,7′R,8′E,11′S,12′R)-6-chloro-7′-methoxy-7′-(methoxymethyl)-11′,12′-dimethyl-3,4-dihydro-2H,15′H-spiro[naphthalene-1,22′-[20]oxa[13]thia[1,14]diazatetracyclo [14.7.2.0~3,6~.0~19,24~]pentacosa[8,16,18,24]tetraen]-15′-one 13′,13′-dioxide], which IC50 is on record?
Its IC50 is 1530 nM.

With CO[C@@]1(CC(=O)C2CC2)/C=C/C[C@H](C)[C@@H](C)S(=O)(=O)NC(=O)c2ccc3c(c2)N(C[C@@H]2CC[C@H]21)C[C@@]1(CCCc2cc(Cl)ccc21)CO3 [Example 100443, (1S,3′R,6′R,7′S,8′E,11′S,12′R)-6-chloro-7′-(2-cyclopropyl-2-oxoethyl)-7′-methoxy-11′,12′-dimethyl-3,4-dihydro-2H,15′H-spiro[naphthalene-1,22′-[20]oxa[13]thia[1,14]diazatetracyclo [14.7.2.0~3,6~.0~19,24~]pentacosa[8,16,18,24]tetraen]-15′-one 13′,13′-dioxide] as the compound, how does the IC50 read?
The IC50 was 156 nM.

Same assay, conditions: Homo sapiens, OPM-2, 16 h, read-out: OPM-2 10% FBS IC50 IP, OPM-2 cells, 10% FBS, 16 h incubation

For CCO[C@]1(CN2CCN(C(COC)COC)CC2)/C=C/C[C@H](C)[C@@H](C)S(=O)(=O)NC(=O)c2ccc3c(c2)N(C[C@@H]2CC[C@H]21)C[C@@]1(CCCc2cc(Cl)ccc21)CO3 [Example 116, (1S,3′R,6′R,7′R,8′E,11′S,12′R)-6-chloro-7′-ethoxy-7′-((4-(2-methoxy-1-(methoxymethyl)ethyl)-1-piperazinyl)methyl)-11′,12′-dimethyl-3,4-dihydro-2H,15′H-spiro[naphthalene-1,22′-[20]oxa[13]thia[1,14]diazatetracyclo [14.7.2.0~3,6~.0~19,24~]pentacosa[8,16,18,24]tetraen]-15′-one 13′,13′-dioxide], which IC50 is on record?
Its IC50 is 387 nM.

For CO[C@@]1(CN2CCN3CCCC[C@@H]3C2)/C=C/C[C@H](C)[C@@H](C)S(=O)(=O)NC(=O)c2ccc3c(c2)N(C[C@@H]2CC[C@H]21)C[C@@]1(CCCc2cc(Cl)ccc21)CO3 [Example 197, (1S,3′R,6′R,7′S,8′E,11′S,12′R)-6-chloro-7′-methoxy-11′,12′-dimethyl-7′-((9aR)-octahydro-2H-pyrido[1,2-a]pyrazin-2-ylmethyl)-3,4-dihydro-2H,15′H-spiro[naphthalene-1,22′-[20]oxa[13]thia[1,14]diazatetracyclo [14.7.2.0~3,6~.0~19,24~]pentacosa[8,16,18,24]tetraen]-15′-one 13′,13′-dioxide], which IC50 is on record?
Its IC50 is 129 nM.

CO[C@@]1(CN2CCN(CCS(C)(=O)=O)CC2)/C=C/C[C@H](C)[C@@H](C)S(=O)(=O)NC(=O)c2ccc3c(c2)N(C[C@@H]2CC[C@H]21)C[C@@]1(CCCc2cc(Cl)ccc21)CO3 [Example 81] was tested. Which IC50 did it give?
Its IC50 is 112 nM.

Same assay, conditions: read-out: OPM-2 10% FBS IC50 IP; OPM-2 cells, 10% FBS, 16 h, CellTiter-Glo

Which IC50 does the source give for CO[C@]1(c2cccnc2F)/C=C/C[C@H](C)[C@@H](C)S(=O)(=O)NC(=O)c2ccc3c(c2)N(C[C@@H]2CC[C@H]21)C[C@@]1(CCCc2cc(Cl)ccc21)CO3 [Example 100324, (1S,3′R,6′R,7′R,8′E,11′S,12′R)-6-chloro-7′-(2-fluoro-3-pyridinyl)-7′-methoxy-11′,12′-dimethyl-3,4-dihydro-2H,15′H-spiro[naphthalene-1,22′-[20]oxa[13]thia[1,14]diazatetracyclo [14.7.2.0~3,6~.0~19,24~]pentacosa[8,16,18,24]tetraen]-15′-one 13′,13′-dioxide] here?
The IC50 was 1170 nM.

For C[C@@H]1[C@@H](C)CCC[C@@](O)(CC(=O)N2CCC2)[C@@H]2CC[C@H]2CN2C[C@@]3(CCCc4cc(Cl)ccc43)COc3ccc(cc32)C(=O)NS1(=O)=O [Example 100144, (1S,3′R,6′R,7′R,11′S,12′R)-7′-(2-(1-azetidinyl)-2-oxoethyl)-6-chloro-7′-hydroxy-11′,12′-dimethyl-3,4-dihydro-2H,15′H-spiro[naphthalene-1,22′-[20]oxa[13]thia[1,14]diazatetracyclo [14.7.2.0~3,6~.0~19,24~]pentacosa[16,18,24]trien]-15′-one 13′,13′-dioxide], which IC50 is on record?
The IC50 was 208 nM.

Same assay, conditions: read-out: OPM-2 10% FBS IC50 IP; OPM-2 cells, 10% FBS, 16 h incubation

CO[C@@]1(CN2CCN3CCN(C(C)=O)C[C@@H]3C2)/C=C/C[C@H](C)[C@@H](C)S(=O)(=O)NC(=O)c2ccc3c(c2)N(C[C@@H]2CC[C@H]21)C[C@@]1(CCCc2cc(Cl)ccc21)CO3 [Example 214] was tested. Which IC50 did it give?
The IC50 was 84 nM.

CO[C@@]1(CN2CCN3CCN(C)C[C@@H]3C2)/C=C/C[C@H](C)[C@@H](C)S(=O)(=O)NC(=O)c2ccc3c(c2)N(C[C@@H]2CC[C@H]21)C[C@@]1(CCCc2cc(Cl)ccc21)CO3 (single isomer, unassigned) [Example 217] was tested. Which IC50 did it give?
The IC50 was 192 nM.

CO[C@]1(CN2CCN3CCN(C(C)=O)C[C@@H]3C2)/C=C/C[C@H](C)[C@@H](C)S(=O)(=O)NC(=O)c2ccc3c(c2)N(C[C@@H]2CC[C@H]21)C[C@@]1(CCCc2cc(Cl)ccc21)CO3 (single isomer, unassigned) [Example 229] was tested. Which IC50 did it give?
Its IC50 is 96 nM.

Which IC50 does the source give for CO[C@]1(CN2CCN3CCS(=O)(=O)C[C@@H]3C2)/C=C/C[C@H](C)[C@@H](C)S(=O)(=O)NC(=O)c2ccc3c(c2)N(C[C@@H]2CC[C@H]21)C[C@@]1(CCCc2cc(Cl)ccc21)CO3 [Example 219] here?
The IC50 was 47 nM.

How did the IC50 turn out when CO[C@@]1(CN2CCN3CCN(C(C)=O)C[C@@H]3C2)/C=C/C[C@H](C)[C@@H](C)S(=O)(=O)NC(=O)c2ccc3c(c2)N(C[C@@H]2CC[C@H]21)C[C@@]1(CCCc2cc(Cl)ccc21)CO3 (single isomer, unassigned) [Example 225] was run?
The IC50 was 280 nM.

With C[C@@H]1[C@@H](C)C/C=C/C(O)(CN2CCN3CCCC[C@@H]3C2)[C@@H]2CC[C@H]2CN2C[C@@]3(CCCc4cc(Cl)ccc43)COc3ccc(cc32)C(=O)NS1(=O)=O (single isomer, unassigned) [Example 243] as the compound, how does the IC50 read?
The IC50 was 106 nM.
